# Measurements reported in ChEMBL document CHEMBL3045006, “Synthesis and anticonvulsant activity of 8-alkoxy-5,6-dihydro-4H-benzo[f][1,2,4]triazolo[4,3-a]azepine derivatives” (Med Chem Res, 2012).
# Activity calls are given as the source filed them. No cut-off for these calls is given here.
# Legend:
# Mus musculus [1] = assay: Protective index, ratio of TD50 for Mus musculus Swiss (mouse) to ED50 for Mus musculus Swiss (mouse) by subcutaneous pentylenetetrazole-induced seizure test; assay type: functional
# Mus musculus [2] = organism: Mus musculus; assay: Protective index, ratio of TD50 for Mus musculus Swiss (mouse) to ED50 for Mus musculus Swiss (mouse) by maximal electroshock-induced seizure test; assay type: functional
# [3] = (§1) Neurotoxicity in ip dosed Mus musculus Swiss (mouse) assessed as minimum motor impairment by rotarod test; assay type: toxicity, organism-based; conditions: Swiss, in vivo
# Mus musculus [4] = assay: Anticonvulsant activity against subcutaneous pentylenetetrazole-induced seizures in ip dosed Mus musculus Swiss (mouse) at 30 mg/kg, ip measured at phase 2; assay type: functional; conditions: sc
# Mus musculus [5] = assay: Anticonvulsant activity against maximal electroshock-induced seizures in ip dosed Mus musculus Swiss (mouse) administered 30 min before MES induction measured at phase 2; assay type: functional
# Mus musculus [6] = assay: Anticonvulsant activity against subcutaneous pentylenetetrazole-induced seizures in Mus musculus Swiss (mouse) at 100 mg/kg, ip measured at phase 1; assay type: functional, organism-based; parameters: dose 100 mg/kg
# Mus musculus [7] = assay: Anticonvulsant activity against maximal electroshock-induced seizures in Mus musculus Swiss (mouse) at 100 mg/kg, ip administered 30 min before MES induction measured at phase 1; assay type: functional, organism-based; parameters: dose 100 mg/kg
# Mus musculus [8] = assay: Anticonvulsant activity against subcutaneous pentylenetetrazole-induced seizures in Mus musculus Swiss (mouse) at 30 mg/kg, ip measured at phase 1; assay type: functional, organism-based; parameters: dose 30 mg/kg
# Mus musculus [9] = assay: Anticonvulsant activity against maximal electroshock-induced seizures in Mus musculus Swiss (mouse) at 300 mg/kg, ip administered 30 min before MES induction measured at phase 1; assay type: functional, organism-based; parameters: dose 300 mg/kg
# Mus musculus [10] = assay: Anticonvulsant activity against maximal electroshock-induced seizures in Mus musculus Swiss (mouse) at 30 mg/kg, ip administered 30 min before MES induction measured at phase 1; assay type: functional, organism-based; parameters: dose 30 mg/kg
# Mus musculus [11] = assay: as §1; assay type: toxicity, organism-based; conditions: in vivo
SMILES,Ratio TD50/ED50 (Mus musculus [1]),Ratio TD50/ED50 (Mus musculus [2]),TD50 [3],ED50 (Mus musculus [4]),ED50 (Mus musculus [5]),Activity (Mus musculus [6]),Activity (Mus musculus [7]),Activity (Mus musculus [8]),Activity (Mus musculus [9]),Activity (Mus musculus [10]),TD50 (Mus musculus [11])
Fc1ccc(COc2ccc3c(c2)CCCc2nncn2-3)cc1,2.1,3.6,97.4 mg/kg,47.3 mg/kg,27.4 mg/kg,Active,Active,–,–,–,–
COc1ccc2c(c1)CCCc1nncn1-2,–,–,–,–,–,inactive,–,inactive,Active,Active,–
O=C1NC(=O)C(c2ccccc2)(c2ccccc2)N1 [PHENYTOIN],–,–,–,> 300 mg/kg,–,–,–,–,–,–,–
c1ccc(COc2ccc3c(c2)CCCc2nncn2-3)cc1,1,3.3,78.9 mg/kg,78.9 mg/kg,23.7 mg/kg,Active,–,inactive,–,Active,–
CCCCOc1ccc2c(c1)CCCc1nncn1-2,2,3.5,73.3 mg/kg,36.7 mg/kg,21.2 mg/kg,Active,–,–,–,Active,–
Clc1ccccc1COc1ccc2c(c1)CCCc1nncn1-2,<0.7,3.4,70.9 mg/kg,> 100 mg/kg,20.5 mg/kg,inactive,–,inactive,–,Active,–
CCCCCCOc1ccc2c(c1)CCCc1nncn1-2,3.4,4.8,84.2 mg/kg,24.6 mg/kg,17.7 mg/kg,–,–,–,–,Active,–
CCCCCOc1ccc2c(c1)CCCc1nncn1-2,5.4,6.5,114 mg/kg,21.2 mg/kg,17.5 mg/kg,–,–,Active,–,Active,–
CCC1(c2ccccc2)C(=O)NC(=O)NC1=O [PHENOBARBITAL],–,–,–,13.2 mg/kg,21.8 mg/kg,–,–,–,–,–,–
Fc1ccccc1COc1ccc2c(c1)CCCc1nncn1-2,2.4,4.5,84.9 mg/kg,35.4 mg/kg,19 mg/kg,Active,–,–,–,Active,–
Clc1cccc(COc2ccc3c(c2)CCCc2nncn2-3)c1,1.5,4.1,120 mg/kg,80.7 mg/kg,29.5 mg/kg,Active,Active,inactive,–,–,–
CCCOc1ccc2c(c1)CCCc1nncn1-2,–,–,–,> 100 mg/kg,73.3 mg/kg,inactive,Active,inactive,–,–,Not Active
Clc1ccc(COc2ccc3c(c2)CCCc2nncn2-3)cc1,1.4,3.7,98.6 mg/kg,68.2 mg/kg,27.4 mg/kg,Active,Active,inactive,–,–,–
CCCC(CCC)C(=O)O [VALPROIC ACID],–,–,–,149 mg/kg,–,–,–,–,–,–,–
Fc1cccc(COc2ccc3c(c2)CCCc2nncn2-3)c1,–,–,> 100 mg/kg,> 100 mg/kg,27.4 mg/kg,Active,Active,inactive,–,–,–
NC(=O)N1c2ccccc2C=Cc2ccccc21 [CARBAMAZEPINE],–,–,–,> 100 mg/kg,8.8 mg/kg,–,–,–,–,–,–
CCCCCCCOc1ccc2c(c1)CCCc1nncn1-2,2.6,3.5,68.4 mg/kg,26.4 mg/kg,19.7 mg/kg,Active,–,–,–,Active,–
Brc1ccc(COc2ccc3c(c2)CCCc2nncn2-3)cc1,0.9,3,96.2 mg/kg,> 100 mg/kg,27 mg/kg,Active,Active,inactive,–,–,–
Cc1ccc(COc2ccc3c(c2)CCCc2nncn2-3)cc1,1.1,3.6,82.9 mg/kg,90.1 mg/kg,27.4 mg/kg,inactive,Active,inactive,–,–,–
